Test results from patent US10526660B2, “Methods for evaluating and treating Waldenstrom's macroglobulinemia” (Dana-Farber Cancer Institute, Inc., priority 2013, dated 2020).
Like-named read-outs stand apart in the source and are kept apart here.

Legend:
BCWM.1 WM cells [1] = settings: CXCR4 S338X transduced cells; 30 nM AMD3100; p<0.005
Text: Five days after transduction, GFP positive cells were sorted and used for functional studies.

[2] = tested on: phospho-AKT, phospho-ERK and phospho-BTK; assay: SDF-1a triggered AKT, ERK and BTK signaling (phosphoflow, immunoblotting) in transduced BCWM.1 cells; assay type: cell-based
BCWM.1 and MWCL-1 cells [3] = settings: CXCR4^S338X expressing cells; co-treatment ibrutinib and AMD3100 30 uM
Description: (§1) Five days after transduction, GFP positive cells were sorted and used for functional studies. Surface expression of CXCR4 was determined by flow cytometric analysis using a PE-conjugated anti-CXCR4 monoclonal antibody (BD Biosciences, San Jose Calif.). Transduced cell lines were stimulated with or without SDF-1a (10-100 nM), and cell surface expression of CXCR4 determined on CXCR4^WT and S338X transduced cells. CXCR4 expression levels were calculated as: [(receptor geometric mean fluorescence intensity [MFI] of treated cells-MFI of isotype IgG control)/(receptor geometric MFI of unstimulated cells-MFI of isotype IgG control)]×100.

CXCR4^S338X BCWM.1 cells = assay: PARP and caspase 3 cleavage by immunoblotting (apoptosis), BCWM.1; assay type: cell-based; settings: for level of SDF-1a mediated rescue from PARP and caspase 3 cleavage: agents at EC50 dose ranges, 6 hours, SDF-1a 20 nM
CXCR4^S338X MWCL-1 cells = assay: PARP and caspase 3 cleavage by immunoblotting (apoptosis), MWCL-1; assay type: cell-based; settings: for level of SDF-1a mediated rescue from PARP and caspase 3 cleavage: agents at EC50 dose ranges, 6 hours, SDF-1a 20 nM
BCWM.1 and MWCL-1 cells [4] = assay: Annexin V staining (apoptosis), Example 5; assay type: cell-based; settings: 18 hours
BCWM.1 WM cells [5] = assay: Annexin V staining (apoptosis) of CXCR4 frameshift/nonsense mutant expressing BCWM.1 cells, Example 6; assay type: cell-based; settings: CXCR4^T311fs and CXCR4^S344fs cells; for SDF-1a rescue of ibrutinib or idelalisib treated cells: MK-2206 0.5 uM, AS-703026 0.25 uM, 18 hours
Text: CXCR4^WT, CXCR4^FS, CXCR4^S338X cDNAs were subcloned into plenti-IRES-GFP vector, and transduced using a lentiviral based strategy into BCWM.1 WM cells as before (Cao et al, 2014; Yang et al, 2013). Frameshift mutations proximal and distal to CXCR4^S338X that were identified in WM patients by WGS were studied (FIG. 11). […] The nonsense mutation CXCR4^S338X resulted from C>G change at 136872485 (Hunter et al, 2013). Five days after transduction, GFP positive cells were sorted and used for functional studies. Surface CXCR4 expression was determined at baseline, and following stimulation for 30 minutes with SDF-1a (10-100 nM) as before (Cao et al, 2014). Phosphoflow experiments were performed using conjugated antibodies to phospho-ERK1/2 (T^202/Y^204) and phospho-AKT(S^473) (BD Phosflow) as previously described (Cao et al, 2014). […] Survival studies related to AKT and ERK were performed in the presence or absence AKT (MK-2206, 0.5 uM) or MEK (AS-703026, 0.25 uM) specific inhibitors (Selleck Chemicals, Houston Tex.) as previously reported (Cao et al, 2014).

WHIM patients = WHIM patients treated daily for 6 months; cited from earlier work
CXCR4 = assay: Cell surface CXCR4 expression by flow cytometry in transfected WM cells; assay type: cell-based
Description: as §1

pAKT and pERK = assay: Immunohistochemical staining for pAKT and pERK in bone marrow of WM patients on ibrutinib; assay type: in vivo, human
[6] = CXCR4^WT and CXCR4^S338X expressing BCWM.1 cells, pre-treatment 2 hours, AMD3100 30 uM or pertussis toxin 500 ng, SDF-1a 20 nM
[7] = CXCR4^S338X BCWM.1 and MWCL-1 cells
[8] = SDF-1a cultured CXCR4^S338X BCWM.1 cells, AS-703026 0.25 uM, AZD-6244 0.5 uM, U0126 5.0 uM

Question: Which “block of CXCL12 rescue from ibrutinib growth effect” value (BCWM.1 WM cells [1]) does the source give for `c1cc(CN2CCCNCCNCCCNCC2)ccc1CN1CCCNCCNCCCNCC1` [AMD3100] here?
Answer: rescue could be blocked

Question: What about the “SDF-1a triggered AKT and ERK activation” value [2, 6] of the same compound?
Answer: blocked both AKT and ERK activation

Question: What about the “reversal of SDF-1a rescue from ibrutinib induced apoptosis” value (BCWM.1 and MWCL-1 cells [3]) of the same compound?
Answer: could be reversed

Question: What about the “reversal of SDF-1a mediated rescue by co-treatment with AMD3100” value (CXCR4^S338X BCWM.1 cells; all agents (bendamustine, fludarabine, bortezomib, idelalisib), AMD3100 30 uM) of the same compound?
Answer: reversal of rescue

Question: What about the “reversal of SDF-1a rescue by co-treatment with AMD3100” value (CXCR4^S338X MWCL-1 cells; idelalisib, fludarabine and bortezomib treated cells, AMD3100 30 uM) of the same compound?
Answer: reversal of SDF1-a rescue

Question: What about the “Annexin V staining: effect of adding AMD3100 to cells treated with ibrutinib and SDF-1a” value (BCWM.1 and MWCL-1 cells [4]) of the same compound?
Answer: restoration of apoptotic changes

Question: What about the “Annexin V studies: effect of AMD3100 on SDF-1a rescue of idelalisib treated cells” value (BCWM.1 and MWCL-1 cells [4]; [7]) of the same compound?
Answer: reversal of rescue

Question: And the “effect of concurrent CXCR4 antagonist on ibrutinib apoptosis in SDF-1a exposed cells” value (BCWM.1 WM cells [5]; CXCR4^S338X, plerixafor 30 uM)?
Answer: restored the pro-apoptotic effects of ibrutinib

Question: What about the myelokathexis related leukopenia (WHIM patients) of the same compound?
Answer: reversed myelokathexis related leukopenia

Question: What does the source list for `O=C(NC[C@H](O)CO)c1ccncc1Nc1ccc(I)cc1F` [AS-703026]?
Answer: inhibitory activity by western blot analysis for pERK (T202/Y204) [2, 8]: confirmed; SDF-1a rescue of ibrutinib or idelalisib treated cells (BCWM.1 WM cells [5]): attenuated SDF-1a rescue

Question: For `Cn1cnc2c(F)c(Nc3ccc(Br)cc3Cl)c(C(=O)NOCCO)cc21` [AZD-6244], which “inhibitory activity by western blot analysis for pERK (T202/Y204)” value [2, 8] is on record?
Answer: confirmed

Question: Which “inhibitory activity by western blot analysis for pAKT (S473)” value ([2]; SDF-1a cultured CXCR4^S338X BCWM.1 cells, 0.5 uM) does the source give for `NC1(c2ccc(-c3nc4ccn5c(=O)[nH]nc5c4cc3-c3ccccc3)cc2)CCC1` [MK-2206] here?
Answer: confirmed

Question: What about the “SDF-1a rescue of ibrutinib or idelalisib treated cells” value (BCWM.1 WM cells [5]) of the same compound?
Answer: attenuated SDF-1a rescue

Question: For `N#CC(=C(/N)Sc1ccccc1N)/C(C#N)=C(\N)Sc1ccccc1N` [U0126], which “inhibitory activity by western blot analysis for pERK (T202/Y204)” value [2] is on record?
Answer: confirmed

Question: For `Cn1c(CCCC(=O)O)nc2cc(N(CCCl)CCCl)ccc21` [bendamustine], which “level of SDF-1a mediated rescue from PARP and caspase 3 cleavage” value (“level of SDF-1a mediated rescue” for short) (CXCR4^S338X BCWM.1 cells) is on record?
Answer: moderate

Question: And the “level of SDF-1a mediated rescue” value (CXCR4^S338X MWCL-1 cells)?
Answer: little to no SDF-1a rescue

Question: With `CC(C)C[C@H](NC(=O)[C@H](Cc1ccccc1)NC(=O)c1cnccn1)B(O)O` [bortezomib] as the compound, how does the “level of SDF-1a mediated rescue” value (CXCR4^S338X BCWM.1 cells) read?
Answer: moderate

Question: And the “level of SDF-1a mediated rescue” value (CXCR4^S338X MWCL-1 cells)?
Answer: lesser levels of rescue

Question: Which “level of SDF-1a mediated rescue” value (CXCR4^S338X BCWM.1 cells) does the source give for `Nc1nc(F)nc2c1ncn2[C@@H]1O[C@H](CO)[C@@H](O)[C@@H]1O` [fludarabine] here?
Answer: moderate

Question: What about the “level of SDF-1a mediated rescue” value (CXCR4^S338X MWCL-1 cells) of the same compound?
Answer: lesser levels of rescue

Question: With `C=CC(=O)N1CCC[C@@H](n2nc(-c3ccc(Oc4ccccc4)cc3)c3c(N)ncnc32)C1` [ibrutinib, 1-[(3R)-3-[4-amino-3-(4-phenoxyphenyl)pyrazolo[3,4-d]pyrimidin-1-yl]piperidin-1-yl]prop-2-en-1-one] as the compound, how does the BTK signaling [2] read?
Answer: blocked BTK signaling

Question: And the “SDF-1a triggered AKT and ERK activation” value [2]?
Answer: attenuated

Question: What about the “SDF-1a triggered AKT and ERK signaling” value [2] of the same compound?
Answer: did not show attenuation

Question: What about the “cell surface CXCR4 expression following ibrutinib treatment” value (CXCR4; CXCR4^WT or CXCR4^S338X expressing WM cells, 0.5, 1, 2, and 6 hours) of the same compound?
Answer: little or no significant changes

Question: And the “SDF-1a related changes in cell surface CXCR4 expression” value (CXCR4; vector only, CXCR4^WT and CXCR4^S338X transfected WM cells, addition of ibrutinib)?
Answer: did not affect

Question: What about the “Annexin V staining: SDF-1a effect on ibrutinib mediated apoptotic changes” value (BCWM.1 and MWCL-1 cells [4]; ibrutinib plus SDF-1a) of the same compound?
Answer: rescue of ibrutinib mediated apoptotic changes by SDF-1a

Question: What about the “pAKT staining in bone marrow on continuous ibrutinib therapy” value (pAKT and pERK; CXCR4^WHIM patients, 6 months) of the same compound?
Answer: remained robust without any changes from baseline

Question: What about the “pAKT staining in bone marrow on continuous ibrutinib therapy” value (pAKT and pERK; CXCR4^WT patients) of the same compound?
Answer: marginal pAKT staining

Question: And the “pERK staining in bone marrow despite ibrutinib therapy” value (pAKT and pERK; all patients, regardless of CXCR4 mutation status)?
Answer: low levels of pERK staining

Question: Which “level of SDF-1a mediated rescue” value (CXCR4^S338X BCWM.1 cells) does the source give for `CC[C@H](Nc1ncnc2[nH]cnc12)c1nc2cccc(F)c2c(=O)n1-c1ccccc1` [idelalisib] here?
Answer: strong

Question: And the “level of SDF-1a mediated rescue” value (CXCR4^S338X MWCL-1 cells)?
Answer: moderate level of rescue

Question: What about the “Annexin V studies: SDF-1a rescue” value (BCWM.1 and MWCL-1 cells [4]; [7]) of the same compound?
Answer: pronounced rescue by SDF-1a

Question: Which “inhibitory effect on AKT (phospho-activity of downstream targets GKS3β and pS6)” value ([2]; CXCR4^S338X BCWM.1 cells, 0.5 uM) does the source give for AZD-5363 here?
Answer: confirmed by inhibition of the phospho-activity

Question: With pertussis toxin as the compound, how does the “SDF-1a triggered AKT and ERK activation” value [2, 6] read?
Answer: blocked both AKT and ERK activation
